Each block holds one molecule with its values, some of them ahead of it.
Legend:
CRTH2 [1] = target: T1, CRTH2 (Homo sapiens, UniProt Q9Y5Y4); assay: Human whole blood CD11b antagonist assay (CD11b expression in eosinophils); format: cell-based; parameters: endogenous in cells; host or cells: eosinophils in human whole blood; details: challenged with 10 nM 15R-Methyl-PGD2, read-out: CD11b Antag IC50(nM) [HuEos-HuWB-vs10nM15R]
T1 sequence (Q9Y5Y4 1-395): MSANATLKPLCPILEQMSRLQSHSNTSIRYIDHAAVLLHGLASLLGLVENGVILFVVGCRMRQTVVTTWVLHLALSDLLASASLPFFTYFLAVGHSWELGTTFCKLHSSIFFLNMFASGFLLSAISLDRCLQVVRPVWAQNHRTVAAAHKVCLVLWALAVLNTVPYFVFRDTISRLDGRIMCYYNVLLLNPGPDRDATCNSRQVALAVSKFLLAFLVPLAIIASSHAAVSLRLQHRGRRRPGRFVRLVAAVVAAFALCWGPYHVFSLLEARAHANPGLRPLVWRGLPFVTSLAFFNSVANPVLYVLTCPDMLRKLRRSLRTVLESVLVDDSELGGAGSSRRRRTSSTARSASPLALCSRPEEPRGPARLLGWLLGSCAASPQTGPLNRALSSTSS
Description: Human Whole Blood CD11B Antagonist Assay (Modified from Nicholson, et al. Pulmonary Pharmacology and Therapeutics: 20 (2007); 52-59).
The potential CRTH2 antagonist activity of certain compounds was tested in human whole blood using an assay that tests the ability of the compounds to block the CD11b expression in eosinophils by 15-R-methyl-PGD2. A CRTH2 antagonist should block CD11b expression by subsequently added 15-Methyl-PGD2. Human whole blood (200 μL) was incubated at 37° C. for 10 minutes in the presence of various concentrations of test compounds before being challenged with the agonist 15R-Methyl-PGD2 (10 nM). Reactions were terminated by the addition of ice-cold PBS+0.5% BSA+2 mMEDTA (1 mL) and centrifugation (300×g for 5 minutes at 4° C.) Cells were then incubated at 4° C. for 10 min in the presence of human IgG. Cells were then incubated for 30-45 min with a mixture of PE-Cy5-labeled mouse anti-human CD16 (10 ul; BD Biosciences) and FITC-labeled mouse anti-human CD11b (10 μL; Beckman Coulter.) After rinsing (1 mL ice-cold PBS+0.5% BSA+2 mMEDTA), red blood cells were lysed by the addition of 1 mL ice-cold H2O to the cell pellet for 30 sec-1 min immediately followed by the addition of 3.5% NaCl (300 μL.) Cells were then rinsed (2×-1 ml ice cold PBS+0.5% BSA+2 mMEDTA) and fixed in PBS containing 1% formaldehyde. The distribution of fluorescence intensities was measured by flow cytometry. Eosinophils were gated out on the basis of their granularity (high side scatter) and absence of CD-16. CD11b was then measured on this eosinophil population on the basis of fluorescence due to FITC.

CRTH2 [2] = target: T1, CRTH2; assay: DPBS CD11b antagonist assay (CD11b expression in eosinophils); format: cell-based; details: challenged with 10 nM 15R-Methyl-PGD2, read-out: CD11b Antag IC50(nM) [HuEos-DPBS-vs10nM15R]
Description: DPBS CD11b Antagonist Assay.
The potential CRTH2 antagonist activity of certain compounds was tested using a CD11b expression assay using essentially the method described by Monneret et al. (J Pharmacol Exp Ther 304:349-55, 2003). Briefly, polymorphonuclear cells (0.5 ml; 10^6/ml cells) in PBS containing 0.9 mM CaCl2 and 0.5 mM MgCl2) were preincubated with various concentrations of test compounds at room temperature for 10 minutes before they were challenged with the agonist 15R-Methyl-PGD2 (10 nM). The incubations were terminated by the addition of ice-cold FACSFlow (BD Biosciences; Cat# 342003) and centrifugation (400 g for 5 minutes at 4° C.). The cells were then incubated for 30 minutes at 4° C. with a mixture of PE-labeled mouse anti-human VLA-4 (5 μl; BD Biosciences) and FITC-labeled mouse anti-human CD11b (10 μl; Beckman Coulter). The cells were then incubated with Optilyse C (0.25 ml; Beckman Coulter) for 15 minutes, centrifuged, and then fixed in PBS (0.4 ml; calcium and magnesium free) containing 1% formaldehyde. The distribution of fluorescence intensities among 60,000 cells was measured by flow cytometry. Eosinophils were gated out on the basis of their granularity (high side scatter) and labeling with VLA-4 (PE fluorescence). CD11b was then measured in the eosinophil region on the basis of fluorescence due to FITC. All data were corrected for the value obtained for the corresponding isotope control antibody.

IC50 (CRTH2 [1]): 100 to 500 nM
SMILES: Cc1c(Cc2ccccc2S(=O)(=O)N2CCCC2)c(C#N)c(C2CCCCC2)n1CC(=O)O [I-14, 2-(3-cyano-2-cyclohexyl-5-methyl-4-(2-(pyrrolidin-1-ylsulfonyl)benzyl)-1H-pyrrol-1-yl)acetic acid]

IC50 (CRTH2 [2]): < 5 nM
IC50 (CRTH2 [1]): 5 to 100 nM
SMILES: Cc1c(Cc2ccccc2S(=O)(=O)c2ccccc2)c(C#N)c(-c2ccccc2)n1CC(=O)O [I-4, 2-(3-cyano-5-methyl-2-phenyl-4-(2-(phenylsulfonyl)benzyl)-1H-pyrrol-1-yl)acetic acid]

IC50 (CRTH2 [1]): 5 to 100 nM
SMILES: Cc1c(Cc2ccccc2S(=O)(=O)N2CCOCC2)cc(-c2ccccc2)n1CC(=O)O [I-13, 2-(2-methyl-3-(2-(morpholinosulfonyl)benzyl)-5-phenyl-1H-pyrrol-1-yl)acetic acid]

IC50 (CRTH2 [1]): 5 to 100 nM
SMILES: Cc1c(Cc2ccccc2S(=O)(=O)N2CCOCC2)c(C#N)c(-c2ccccc2)n1CC(=O)O [I-3, 2-(3-cyano-5-methyl-4-(2-(morpholinosulfonyl)benzyl)-2-phenyl-1H-pyrrol-1-yl)acetic acid]

IC50 (CRTH2 [2]): > 500 nM
IC50 (CRTH2 [1]): > 500 nM
SMILES: CCOC(=O)Cn1c(C)c(C#N)c(Cc2ccccc2S(=O)(=O)N2CCCC2)c1C [I-63, Ethyl 2-(3-cyano-2,5-dimethyl-4-(2-(pyrrolidin-1-ylsulfonyl)benzyl)-1H-pyrrol-1-yl)acetate]

IC50 (CRTH2 [1]): 100 to 500 nM
SMILES: Cc1c(Cc2ccccc2S(=O)(=O)N2CCCC2)cc(-c2ccccc2)n1CC(=O)O [I-16]

IC50 (CRTH2 [2]): < 5 nM
IC50 (CRTH2 [1]): 5 to 100 nM
SMILES: CC(=O)c1c(Cc2ccccc2S(=O)(=O)c2ccccc2)c(C)n(CC(=O)O)c1C [I-52, 2-(3-acetyl-2,5-dimethyl-4-(2-(phenylsulfonyl)benzyl)-1H-pyrrol-1-yl)acetic acid]

IC50 (CRTH2 [1]): 5 to 100 nM
SMILES: Cc1c(Cc2ccccc2S(=O)(=O)c2ccccc2)c(-c2ccccc2)c(-c2ccccc2)n1CC(=O)O [I-12, 2-(2-methyl-4,5-diphenyl-3-(2-(phenylsulfonyl)benzyl)-1H-pyrrol-1-yl)acetic acid]

IC50 (CRTH2 [2]): < 5 nM
IC50 (CRTH2 [1]): 5 to 100 nM
SMILES: Cc1c(Cc2ccccc2S(=O)(=O)N2CCCC2)c(-c2ccccc2)c(C)n1CC(=O)O [I-57, 2-(2,5-dimethyl-3-phenyl-4-(2-(pyrrolidin-1-ylsulfonyl)benzyl)-1H-pyrrol-1-yl)acetic acid]

IC50 (CRTH2 [2]): < 5 nM
IC50 (CRTH2 [1]): 5 to 100 nM
SMILES: Cc1c(C#N)c(Cc2ccccc2S(=O)(=O)N2CCCC2)c(C)n1CC(=O)O [I-32, 2-(3-cyano-2,5-dimethyl-4-(2-(pyrrolidin-1-ylsulfonyl)benzyl)-1H-pyrrol-1-yl)acetic acid]

IC50 (CRTH2 [2]): < 5 nM
IC50 (CRTH2 [1]): 5 to 100 nM
SMILES: Cc1c(C#N)c(Cc2ccccc2S(=O)(=O)c2ccccc2)c(C)n1CC(=O)O [I-23, 2-(3-cyano-2,5-dimethyl-4-(2-(phenylsulfonyl)benzyl)-1H-pyrrol-1-yl)acetic acid]

IC50 (CRTH2 [2]): < 5 nM
IC50 (CRTH2 [1]): 5 to 100 nM
SMILES: Cc1c(Cc2ccccc2S(=O)(=O)N2CCCC2)c(C(=O)c2ccccc2)c(C)n1CC(=O)O [I-55, 2-(3-benzoyl-2,5-dimethyl-4-(2-(pyrrolidin-1-ylsulfonyl)benzyl)-1H-pyrrol-1-yl)acetic acid]

IC50 (CRTH2 [2]): 5 to 100 nM
IC50 (CRTH2 [1]): 5 to 100 nM
SMILES: Cc1c(C#N)c(Cc2ccccc2S(=O)(=O)N2CCOCC2)c(C)n1CC(=O)O [I-46, 2-(3-cyano-2,5-dimethyl-4-(2-(morpholinosulfonyl)benzyl)-1H-pyrrol-1-yl)acetic acid]

IC50 (CRTH2 [2]): 100 to 500 nM
IC50 (CRTH2 [1]): > 500 nM
SMILES: Cc1nn(CC(=O)O)c(C)c1Cc1ccccc1S(=O)(=O)N1CCCC1 [I-72, 2-(3,5-dimethyl-4-(2-(pyrrolidin-1-ylsulfonyl)benzyl)-1H-pyrazol-1-yl)acetic acid]

IC50 (CRTH2 [1]): 5 to 100 nM
SMILES: Cc1c(Cc2ccccc2S(=O)(=O)N2CCCC2)c(C#N)c(-c2ccccc2)n1CC(=O)O [I-11, 2-(3-cyano-5-methyl-2-phenyl-4-(2-(pyrrolidin-1-ylsulfonyl)benzyl)-1H-pyrrol-1-yl)acetic acid]

IC50 (CRTH2 [1]): > 500 nM
SMILES: Cc1c(C#N)c(CC(=O)O)c(C)n1Cc1ccccc1S(=O)(=O)N1CCCC1 [I-73, 2-(4-cyano-2,5-dimethyl-1-(2-(pyrrolidin-1-ylsulfonyl)benzyl)-1H-pyrrol-3-yl)acetic acid]

Further lines, the molecule ahead of its results:

SMILES: Cc1c(Cc2ccccc2S(=O)(=O)c2ccccc2)cc(-c2cccnc2)n1CC(=O)O [I-2, 2-(2-methyl-3-(2-(phenylsulfonyl)benzyl)-5-(pyridin-3-yl)-1H-pyrrol-1-yl)acetic acid]
IC50 (CRTH2 [1]): 5 to 100 nM

SMILES: Cc1cc(Sc2ccccc2S(=O)(=O)N2CCOCC2)c(C)n1CC(=O)O [I-29, 2-(2,5-dimethyl-3-(2-(morpholinosulfonyl)phenylthio)-1H-pyrrol-1-yl)acetic acid]
IC50 (CRTH2 [2]): < 5 nM
IC50 (CRTH2 [1]): 5 to 100 nM

SMILES: Cc1c(Cc2ccccc2S(=O)(=O)c2ccccc2)cc(-c2ccc(C(F)(F)F)cc2)n1CC(=O)O [I-25, 2-(2-methyl-3-(2-(phenylsulfonyl)benzyl)-5-(4-(trifluoromethyl)phenyl)-1H-pyrrol-1-yl)acetic acid]
IC50 (CRTH2 [2]): 5 to 100 nM
IC50 (CRTH2 [1]): > 500 nM

SMILES: Cc1c(Cc2ccc(S(=O)(=O)N3CCCC3)cc2)c(C)n(CC(=O)O)c1CCO [I-20, 2-(2-(2-hydroxyethyl)-3,5-dimethyl-4-(4-(pyrrolidin-1-ylsulfonyl)benzyl)-1H-pyrrol-1-yl)acetic acid]
IC50 (CRTH2 [2]): > 500 nM

SMILES: Cc1c(Cc2ccccc2S(=O)(=O)c2ccccc2)cc(-c2ccccn2)n1CC(=O)O [I-17, 2-(2-methyl-3-(2-(phenylsulfonyl)benzyl)-5-(pyridin-2-yl)-1H-pyrrol-1-yl)acetic acid]
IC50 (CRTH2 [1]): 100 to 500 nM

SMILES: Cc1c(Cc2ccccc2S(=O)(=O)c2ccccc2)cc(-c2ccc(F)cc2)n1CC(=O)O [I-15, 2-(5-(4-fluorophenyl)-2-methyl-3-(2-(phenylsulfonyl)benzyl)-1H-pyrrol-1-yl)acetic acid]
IC50 (CRTH2 [1]): 100 to 500 nM

SMILES: Cc1cc(C(=O)c2ccccc2S(=O)(=O)N2CCOCC2)c(C)n1CC(=O)O [I-56, 2-(2,5-dimethyl-3-(2-(morpholinosulfonyl)benzoyl)-1H-pyrrol-1-yl)acetic acid]
IC50 (CRTH2 [2]): > 500 nM
IC50 (CRTH2 [1]): 100 to 500 nM

SMILES: Cc1c(Cc2ccccc2S(=O)(=O)c2ccccc2)cc(-c2ccccc2F)n1CC(=O)O [I-18, 2-(5-(2-fluorophenyl)-2-methyl-3-(2-(phenylsulfonyl)benzyl)-1H-pyrrol-1-yl)acetic acid]
IC50 (CRTH2 [1]): > 500 nM

SMILES: Cc1c(Cc2ccccc2S(=O)(=O)c2ccccc2)cc(-c2ccccc2)n1CC(=O)O [I-6, 2-(2-methyl-5-phenyl-3-(2-(phenylsulfonyl)benzyl)-1H-pyrrol-1-yl)acetic acid]
IC50 (CRTH2 [2]): < 5 nM
IC50 (CRTH2 [1]): 100 to 500 nM

SMILES: Cc1c(Cc2ccccc2S(=O)(=O)c2ccccc2)cc(-c2ccncc2)n1CC(=O)O [I-1, 2-(2-methyl-3-(2-(phenylsulfonyl)benzyl)-5-(pyridin-4-yl)-1H-pyrrol-1-yl)acetic acid]
IC50 (CRTH2 [1]): < 5 nM

SMILES: Cc1c(Cc2ccccc2S(=O)(=O)c2ccccc2)cc(-c2ccccc2C(F)(F)F)n1CC(=O)O [I-27, 2-(2-methyl-3-(2-(phenylsulfonyl)benzyl)-5-(2-(trifluoromethyl)phenyl)-1H-pyrrol-1-yl)acetic acid]
IC50 (CRTH2 [1]): > 500 nM

SMILES: Cc1c(Cc2ccccc2S(=O)(=O)c2ccccc2)cc(-c2cccc(F)c2)n1CC(=O)O [I-8, 2-(5-(3-fluorophenyl)-2-methyl-3-(2-(phenylsulfonyl)benzyl)-1H-pyrrol-1-yl)acetic acid]
IC50 (CRTH2 [1]): 5 to 100 nM

— US8674115B2, “CRTH2 modulators” (Ironwood Pharmaceuticals, Inc., priority 2009, dated 2014)
